Reference: BindingDB's records for doi:10.1021/cb5001586 (The Broad Institute , Cambridge, Massachusetts 02142, …, 2014)

target: Acyl-homoserine lactone acylase PvdQ [A190E,F674L] (Pseudomonas aeruginosa, UniProt Q9I194, A190E/F674L); assay: PvdQ IC50 Assay
Experimental: The assay was performed with nine compound concentrations that ranged from 3 nM to 19.5 µM with PvdQ concentration of 20 nM. The positive control, isopropyl dodecylfluorophosphonate (IDFP), was added in 24 selective wells to a final concentration of 200 µM. The assay plates were initially read at time = 0 and then incubated for 60 min at RT. The plates were read again at time = 60 min.

Chain of Acyl-homoserine lactone acylase PvdQ [A190E,F674L] (Q9I194 whole entry, looked up, stated change not applied): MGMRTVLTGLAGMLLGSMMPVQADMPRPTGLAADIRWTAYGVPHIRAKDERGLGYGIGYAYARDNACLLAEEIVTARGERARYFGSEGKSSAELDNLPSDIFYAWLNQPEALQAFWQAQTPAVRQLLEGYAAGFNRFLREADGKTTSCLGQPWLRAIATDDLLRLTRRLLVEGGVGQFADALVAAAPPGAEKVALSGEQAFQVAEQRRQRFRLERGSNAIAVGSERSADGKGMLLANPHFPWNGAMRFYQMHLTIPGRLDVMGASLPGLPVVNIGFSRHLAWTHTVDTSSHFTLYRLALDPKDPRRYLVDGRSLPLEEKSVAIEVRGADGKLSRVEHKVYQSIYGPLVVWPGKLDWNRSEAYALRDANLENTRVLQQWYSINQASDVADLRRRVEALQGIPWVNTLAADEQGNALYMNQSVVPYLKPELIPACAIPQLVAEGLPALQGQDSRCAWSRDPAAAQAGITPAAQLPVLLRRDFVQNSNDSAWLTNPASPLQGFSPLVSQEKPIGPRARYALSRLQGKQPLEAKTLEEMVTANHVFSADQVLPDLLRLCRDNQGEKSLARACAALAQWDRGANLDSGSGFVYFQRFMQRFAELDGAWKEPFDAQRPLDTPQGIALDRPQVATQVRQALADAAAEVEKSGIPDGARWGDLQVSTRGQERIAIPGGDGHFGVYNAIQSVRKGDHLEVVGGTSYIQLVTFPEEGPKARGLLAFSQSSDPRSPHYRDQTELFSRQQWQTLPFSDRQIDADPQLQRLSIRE

Q: CC(C)CC(C#N)c1ccc(Cl)cc1 (stereo not given) [2-(4-Chlorophenyl)-4-methylpentanenitrile (39)] was tested. Which IC50 did it give?
A: 290 nM

Q: How did the IC50 turn out when COCCOCCC(C#N)c1ccc(Cl)cc1 (stereo not given) [2-(4-Chlorophenyl)-4-(2-methoxyethoxy)butanenitrile (42)] was run?
A: 4700 nM

Q: Which IC50 does the source give for N#Cc1ccc(C(C#N)c2ccc(Cl)cc2Cl)nc1 (stereo not given) [6-(Cyano(2,4-dichlorophenyl)methyl)nicotinonitrile (34)] here?
A: 1800 nM

Q: CCCCC(C#N)c1ccc(Cl)cn1 (stereo not given) [2-(5-Chloropyridin-2-yl)hexanenitrile (49)] was tested. Which IC50 did it give?
A: 3800 nM

Q: Clc1ccc(C(c2cccc(Cl)n2)c2nnn[nH]2)cc1 (stereo not given) [2-Chloro-6-((4-chlorophenyl)(1H-tetrazol-5-yl)-methyl)pyridine (52)] was tested. Which IC50 did it give?
A: 3400 nM

Q: For N#CC(c1ccc(Cl)cc1)c1ccc(C(F)(F)F)c(Cl)n1 (stereo not given) [2-(6-Chloro-5-(trifluoromethyl)pyridin-2-yl)-2-(4-chlorophenyl)acetonitrile (21)], which IC50 is on record?
A: 620 nM

Q: With CCCCC(C#N)c1ccccn1 (stereo not given) [2-(Pyridin-2-yl)hexanenitrile (51)] as the compound, how does the IC50 read?
A: 8400 nM

Q: With N#CC(c1ccc(Cl)cc1)c1ncccc1Cl (stereo not given) [2-(4-Chlorophenyl)-2-(3-chloropyridin-2-yl) acetonitrile (15)] as the compound, how does the IC50 read?
A: 10 nM

Q: Which IC50 does the source give for N#CC(c1ccc(C(F)(F)F)c(Cl)n1)c1ccc(Cl)cc1F (stereo not given) [2-(4-Chloro-2-fluorophenyl)-2-(6-chloro-5-(trifluoro-methyl)pyridin-2-yl)acetonitrile (32)] here?
A: 630 nM

Q: With N#CC(c1ccc(F)cc1)c1ccc(C(F)(F)F)c(Cl)n1 (stereo not given) [2-(6-Chloro-5-(trifluoromethyl)pyridin-2-yl)-2-(4-fluorophenyl)acetonitrile (27)] as the compound, how does the IC50 read?
A: 740 nM

Q: With N#CC(c1ccc(Cl)cc1Cl)c1ncccc1Cl (stereo not given) [2-(3-Chloropyridin-2-yl)-2-(2,4-dichlorophenyl) acetonitrile (35)] as the compound, how does the IC50 read?
A: 210 nM

Q: For CCCC(C#N)c1ccc(Cl)cc1 (stereo not given) [2-(4-Chlorophenyl)pentanenitrile (37)], which IC50 is on record?
A: 5900 nM

Q: Which IC50 does the source give for N#Cc1ccc(C(C#N)c2ccc(Cl)cc2)nc1 (stereo not given) [6-((4-Chlorophenyl)(cyano)methyl)nicotinonitrile (23)] here?
A: 2500 nM

Q: Which IC50 does the source give for N#CC(c1ccc(C(F)(F)F)cc1)c1cccc(C(F)(F)F)n1 (stereo not given) [2-(4-(Trifluoromethyl)phenyl)-2-(6-(trifluoromethyl)pyridin-2-yl)acetonitrile (29)] here?
A: 140 nM

Q: With COCCC(C#N)c1ccc(Cl)cc1 (stereo not given) [2-(4-Chlorophenyl)-4-methoxybutanenitrile (41)] as the compound, how does the IC50 read?
A: 4800 nM

Q: For N#Cc1cccc(C(C#N)c2ccc(Cl)cc2Cl)n1 (stereo not given) [6-(Cyano(2,4-dichlorophenyl)methyl)picolinonitrile (33)], which IC50 is on record?
A: 290 nM

Q: How did the IC50 turn out when N#CC(c1cccc(Cl)n1)c1ccc(Cl)cc1Cl (stereo not given) [2-(6-Chloropyridin-2-yl)-2-(2,4-dichlorophenyl) acetonitrile (12)] was run?
A: 250 nM

Q: With CCCCC(C#N)c1ccc(C(F)(F)F)cc1 (stereo not given) [2-(4-(Trifluoromethyl)phenyl)hexanenitrile (48)] as the compound, how does the IC50 read?
A: > 10000 nM

Q: Which IC50 does the source give for CCCCC(C#N)c1ccc(Cl)cc1 (stereo not given) [2-(4-Chlorophenyl)hexanenitrile (38)] here?
A: 1400 nM

Q: Which IC50 does the source give for N#Cc1cccc(C(C#N)c2ccc(Cl)cc2F)n1 (stereo not given) [6-((4-Chloro-2-fluorophenyl)(cyano)methyl) picolinonitrile (30)] here?
A: 110 nM

Q: N#CC(c1ccc(Cl)cc1)c1ccccn1 (stereo not given) [2-(4-Chlorophenyl)-2-(pyridin-2-yl)acetonitrile (24)] was tested. Which IC50 did it give?
A: 270 nM

Q: N#CC(c1cccc(Cl)n1)c1ccc(Cl)cc1F (stereo not given) [2-(4-Chloro-2-fluorophenyl)-2-(6-chloropyridin-2-yl) acetonitrile (13)] was tested. Which IC50 did it give?
A: 60 nM

Q: With N#CC(c1ccc(C(F)(F)F)cc1)c1ccc(C(F)(F)F)c(Cl)n1 (stereo not given) [2-(6-Chloro-5-(trifluoromethyl)pyridin-2-yl)-2-(4-(trifluoromethyl)phenyl)acetonitrile (28)] as the compound, how does the IC50 read?
A: 2300 nM

Q: For N#CC(c1ccc(Cl)cc1)c1ccc(C(F)(F)F)cn1 (stereo not given) [2-(4-Chlorophenyl)-2-(5-(trifluoromethyl)pyridin-2-yl)acetonitrile (20)], which IC50 is on record?
A: 2400 nM

Q: N#CC(c1ccc(C(F)(F)F)cc1)c1cccc(Cl)n1 (stereo not given) [2-(6-Chloropyridin-2-yl)-2-(4-(trifluoromethyl)phenyl)acetonitrile (10)] was tested. Which IC50 did it give?
A: 390 nM

Q: Which IC50 does the source give for N#CC1c2ccc(Cl)cc2CCc2cccnc21 (stereo not given) [8-Chloro-6,11-dihydro-5H-benzo[5,6]cyclohepta[1,2-b]pyridine-11-carbonitrile (55)] here?
A: 9100 nM

Q: With N#CC(c1ccc(Cl)cc1)c1cccc(C(F)(F)F)n1 (stereo not given) [2-(4-Chlorophenyl)-2-(6-(trifluoromethyl)pyridin-2-yl)acetonitrile (16)] as the compound, how does the IC50 read?
A: 10 nM

Q: Which IC50 does the source give for N#CC(c1ccc(C(F)(F)F)c(Cl)n1)c1ccc(Cl)cc1Cl (stereo not given) [2-(6-Chloro-5-(trifluoromethyl)pyridin-2-yl)-2-(2,4-dichlorophenyl)acetonitrile (36)] here?
A: 970 nM

Q: Cc1ccc(C(C#N)c2ccc(Cl)cc2)nc1C#N (stereo not given) [6-((4-Chlorophenyl)(cyano)methyl)-3-methyl picolinonitrile (22)] was tested. Which IC50 did it give?
A: 180 nM

Q: How did the IC50 turn out when N#CC(c1ccc(F)cc1)c1cccc(C(F)(F)F)n1 (stereo not given) [2-(4-Fluorophenyl)-2-(6-(trifluoromethyl)pyridin-2-yl) acetonitrile (4)] was run?
A: 20 nM

Q: For N#CC(c1ccc(Cl)cc1)c1ccc(Cl)cn1 (stereo not given) [2-(4-Chlorophenyl)-2-(5-chloropyridin-2-yl) acetonitrile (14)], which IC50 is on record?
A: 130 nM

Q: How did the IC50 turn out when N#Cc1cccc(C(C#N)c2ccc(Cl)cc2)n1 (stereo not given) [6-((4-Chlorophenyl)(cyano)methyl)picolinonitrile (17)] was run?
A: 180 nM

Q: N#CC(c1cccc(Cl)n1)c1ccccc1OC(F)(F)F (stereo not given) [2-(6-Chloropyridin-2-yl)-2-(2-(trifluoromethoxy)-phenyl)acetonitrile (11)] was tested. Which IC50 did it give?
A: 1700 nM

Q: Which IC50 does the source give for CC(C#N)(c1ccc(Cl)cc1)c1ccc(C(F)(F)F)cn1 (stereo not given) [2-(4-Chlorophenyl)-2-(5-(trifluoromethyl)pyridin-2-yl)propanenitrile (54)] here?
A: 1100 nM

Q: Which IC50 does the source give for N#CC(CC1CC1)c1ccc(Cl)cc1 (stereo not given) [2-(4-Chlorophenyl)-3-cyclopropylpropanenitrile (40)] here?
A: 540 nM

Q: With N#Cc1cccc(C(C#N)c2ccc(F)cc2)n1 (stereo not given) [6-(Cyano(4-fluorophenyl)methyl)picolinonitrile (25)] as the compound, how does the IC50 read?
A: 130 nM

Q: N#CC(c1ccc(C(F)(F)F)cn1)c1ccc(Cl)cc1F (stereo not given) [2-(4-Chloro-2-fluorophenyl)-2-(5-(trifluoromethyl)-pyridin-2-yl)acetonitrile (31)] was tested. Which IC50 did it give?
A: 10 nM

Q: Which IC50 does the source give for COCCC(C#N)c1ccc(F)cc1 (stereo not given) [2-(4-Fluorophenyl)-4-methoxybutanenitrile (47)] here?
A: 290 nM

Q: Which IC50 does the source give for CCCCC(C#N)c1ccc(F)cc1 (stereo not given) [2-(4-Fluorophenyl)hexanenitrile (46)] here?
A: 320 nM

Q: Which IC50 does the source give for CCCCC(c1ccc(Cl)cc1)c1nnn[nH]1 (stereo not given) [5-(1-(4-Chlorophenyl)pentyl)-1H-tetrazole (53)] here?
A: 6700 nM
